# Test results published in patent US20220064167A1, “IMIDAZO-PYRAZOLE CARBOXAMIDE DERIVATIVES AS ANTICANCER AGENTS AND THE SYNTHESIS THEREOF” (AVIDIN KFT., priority 2018, published 2022).
# pIC50: −log10 of the molar value. Entries after “also recorded” stand apart in the source; their conditions may differ.
# Legend:
# [1] = tested on: 4T1 mouse cells inoculated into the mammary gland of BalbC mouse; experiment: mammary carcinoma mouse model (FIG. 6); format: in vivo; conditions: 3 mg/kg intravenously, every other day from day 16, 6 occasions, compared to vehicle
# Description: The effect on mammary carcinoma was studied on BalbC mouse model inoculated subcutaneously into the mammary gland with 4T1 mouse cells (ATCC) (100,000 cells/animal). Two groups were formed from randomly selected mice, with 8 animals in both groups. Group 1: control group, it was only administered a carrier (0.1 mL, 0.9% NaCl solution) intravenously; group 2: group treated with compound 83, it was administered 3 mg/kg of compound 83 in PEG100:Solutol:PBS (1:4:15 vol ratio), intravenously after the tumor reached 300 mm^3 (day 16). The treatments were performed from the sixteenth day, every other day, for a total of 6 occasions. Starting from the 16th day on every day the size of the increasing tumours was determined in the case of each animal, and the group average was represented per group (FIG. 6). The standard deviation was determined in SEM. It can be seen that the treatment with compound 83 reduced the size of the increasing mammary tumour.
# [2] = tested on: HTT199 human melanoma cells in SCID immune-deficient mouse; experiment: melanoma mouse model (FIG. 8); format: in vivo; conditions: 3 mg/kg intravenously, 10 occasions
# Description: The effect on melanoma was studied on SCID immune-deficient mouse model inoculated in the spleen with HTT199 human melanoma cells (ATCC) (1 million cells/animal). Two groups were formed from randomly selected mice, with 10 animals in each group. Group 1: control group, it was only administered a carrier (0.1 mL, 0.9% NaCl solution) intravenously; group 2: group treated with compound 83, it was administered 3 mg/kg of compound 83 in PEG100:Solutol:PBS (1:4:15 vol ratio), intravenously.
# The treatments were performed from the third day, on five consecutive occasions per week, for 2 weeks, on a total of 10 occasions. As time went on, every day we determined the number of surviving animals and represented it in percentage per group as compared to the total initial number of animals (FIG. 8). It can be seen that the 3 mg/kg dose of compound 83 administered intravenously was effective, the treatment with compound 83 increased the LD50 (from day 33 to day 38) and the survival rate of the animals.
# CD11b on HL-60 cells = experiment: flow cytometry of cell surface CD11b (FIG. 3B); format: cell-based, human; conditions: HL-60, 24, 48 and 72 h after treatment
# Description: Experiments detecting CD11b expression by Flow cytometric immunofluorescence were done as described in Example 104 without fixation and permeabilization. Native cell surface staining was done by CD11b-FITC (Immunotools cat number 21389113), with 1:20 dilution 24, 48 and 72 h after treatment.
# [3] = tested on: SKOV-3 cells (ovarian adenocarcinoma); experiment: viability assay (Table 2); format: cell-based; conditions: Homo sapiens, SK-OV-3
# [4] = tested on: CD33 expression in HL-60 cells; experiment: quantitative real time PCR of stem cell marker (FIG. 3A); format: cell-based, human; conditions: HL-60, 24 h after treatment, normalized to ACTB
# Description: (§1) HL-60 cells (10×10^6) were plated in 100 mm tissue culture dishes (Corning Life Sciences) in RPMI 10% FCS. Cells were treated in 10 mL total volume with the compound described in Example 83 24 h after treatment, nucleic acid preparation was done by using the Bioneer RNA purification kit (Bioneer, Viral RNA extraction kit, Daejeon, South Korea) according to an already published protocol (Szebeni et al. 2017a). The quality and quantity of the isolated RNA were measured with NanoDrop1000 Version 3.8.1. (Thermo Fisher Scientific). Reverse transcription from 3 μg of total RNA was performed with the High-Capacity cDNA Archive Kit (Applied Biosystems, Foster City, Calif., USA) in a total volume of 30 μL according to the manufacturer's protocol. Quantitative-real time PCR was carried out using gene specific primers for CD33 (primer sequences: forward 5′ […] 3′, reverse 5′ […] 3′) and CD34, (primer sequences: forward 5′ gcgctttgcttgctgagt 3′, reverse 5′ […] 3′) using Sybr Green detection on a LightCycler Nano instrument (Roche, Hungary). Relative gene expression data was normalized to ACTB (beta actin, primer sequences: forward 5′ attggcaatgagcggttc 3′, reverse 5′ cgtggatgccacaggact 3′) expression.
# [5] = tested on: CD34 expression in HL-60 cells; experiment: as above; format: cell-based, human; conditions: HL-60, 24 h after treatment, normalized to ACTB
# Description: as §1
structure (smiles),measurement,setting,value
"CC(C)(C)Nc1c(C(C)(C)C)[nH]c2c(C(=O)Nc3ccc(N)cc3)cnn12 [Example 83, N-(4-Aminophenyl)-2-(tert-butyl)-3-(tert-butylamino)-1H-imidazo[1,2-b]pyrazole-7-carboxamide]",size of the increasing mammary tumour,[1],reduced
same,survival rate of the animals,[2],increased
same,median survival time,[2]; control day 33,38 days
same,matured myeloid cell marker CD11b on the cell surface,CD11b on HL-60 cells,elevation; also recorded: elevated
same,pIC50,[3],6.82
same,expression of haematopoietic stem cell marker CD33,[4],decreased
same,expression of haematopoietic stem cell marker CD34,[5],decreased
